Experiments:
anti-HBc [1] = assay: CORAB radioimmunoassay for anti-HBc (competitive), with reducing agent added to the sample; type: binding, human; conditions: for inhibition in the Corab assay: presence of metabisulfite
Experimental: 0.1 ml samples in groups I and II were placed in duplicate reaction wells, along with negative and positive controls, and 10 ul of 0.3% 2-mercaptoethanol (2-ME) in H2 O was added to one each of the duplicates, while 10 ul H2 O was added to the other. 0.1 ml of ^125 I-labeled anti-HBc was added to all wells, followed by an HBcAg-coated 1/4 inch polystyrene bead to all wells. Trays were gently shaken and allowed to incubate overnight at room temperature. All beads were washed 3 times with distilled water and transferred to test tubes for counting for 1 minute in a gamma scintillation counter. The positivity or negativity of each was calculated, as was the degree (%) inhibition from negative control for each specimen both with and without reducing reagent according to the formula: [formula] By this calculation, a sample giving a value equal to or greater than 50% is judged as positive in the test. The effect of the addition of the reducing reagents to the specimens was evaluated by several criteria:
Plasma samples designated 25, 31, 76, 91, 177 and 189 were tested with a commercially available anti-HBc kit (Corab®, Abbott Laboratories, North Chicago, Ill.) with and without addition of 10 ul of a reducing agent, 0.5M sodium metabisulfite. Also, as in Example 4, samples were tested with and without addition of 26.3 ul of a positive anti-HBc sample (Panel 5). […] Samples 31 and 91 are discrepant samples which are confirmed as negative upon addition of the reducing agent.

anti-HBc [2] = assay: Microparticle chemiluminescence immunoassay for anti-HBc, with cysteine; type: binding, human
Experimental: Recombinant DNA hepatitis B core antigen (rHBcAg) was coupled to carboxylated polystyrene latex microparticles (Seragen Diagnostics, Indianapolis, Ind., 0.188 um) using a two-step procedure. First, purified polyclonal human anti-HBc at 2.7 ug/mg latex particles in the presence of normal human serum (1.0 ul/mg) was coupled using 1-ethyl-3-(3-dimethylaminopropyl) carbodiimide (EDAC, 43 ug/mg) in 0.015M MES buffer (2-[N-morpholino] ethanesulfonic acid), pH 4.8, for 2 hours at room temperature. Bangs, "Uniform Latex Particles", Seragen Diagnostics, 1984. The antibody undercoated particles were then washed three times in 0.1M Tris buffer, pH 7.2, containing 0.9% NaCl, 0.03% EDTA and 0.05% Tween-20 by centrifugation (40,000×g for 20 minutes) and resuspended in 0.1M Tris buffer, pH 7.2, containing 0.9% NaCl, 0.03% EDTA and 0.03% bovine serum albumin. rHBcAg (0.2 ug/mg) was then immunologically adsorbed on the undercoated particles by slow rotation overnight at room temperature. Particles were washed three times as before and dispersed through a 25 gauge needle and stored in 0.01M sodium phosphate, pH 7.2, containing 0.15M NaCl, 0.1% bovine serum albumin, 0.01% Tween-20 and 0.1% sodium azide (Microparticle Diluent). Percent solids was determined by light scattering at 500 nanometers. Coated particles were stored concentrated (typically 5-10% solids) and diluted in storage buffer to a working concentration (0.036%) before each assay. In an alternative method, rHBcAg was coupled directly to the microparticles by the EDAC method. The anti-HBc undercoating method is preferred.
Acridinium-labeled purified anti-HBc (human) was prepared using an EDAC coupling procedure on the active ester. Briefly, 1 mg of B-alanine acridinium was dissolved in 100 ul anhydrous DMF and activated by sequential addition of 50 ul N-hydroxylsuccinimide (NHS) (5.75 mg/ml) and 50 ul EDAC (19.2 mg/ml) (molar ratio NHS:EDAC=1:2). The reaction proceeded in the dark at room temperature for 30 minutes. Protein A purified human anti-HBc was dialyzed (3×) against PBS, 0.5% CHAPS, pH 6.3, overnight at 2°-8° C. Activated acridinium was added to dialyzed antibody (30:1 molar excess) and the reaction mixture stirred for 30 minutes at room temperature. After dialysis versus the same buffer, the preparation was centrifuged and the supernatant chromatographed on a Beckman TSK 250 HPLC column equilibrated with the same buffer. Individual fractions (1 ml) were analyzed by UV spectroscopy at 369 and 280 nm to determine incorparation of acridinium (typically 3:1).
100 ul duplicates of samples including a sensitivity panel sample (1.23 Paul Erhlich Units/ml, Panel 7), two samples, S9 and S14, which were similar in anti-HBc reactivity to Group II samples described above, and negative and positive controls were added to a microtiter plate. […] 50 ul of the HBcAg-coated microparticles (0.036% solids) were added to all wells. This reaction mixture was incubated for 20 minutes in a 40° water bath.
166 ul of each reaction mixture was transferred to a microparticle capture/flow-through glass fiber filter funnel (Abbott Laboratories, North Chicago, Ill.) which was prewetted with 50 ul of 0.1% Tween-20. Each capture membrane was then washed twice with 50 ul of 0.1% Tween-20. 20 ul of the acridinium-labeled anti-HBc (375 ng/ml) was added to the surface of each capture membrane and incubated at room temperature for 20 minutes. The capture membranes were then washed twice with 100 ul and once with 50 ul of 0.1% Tween-20.
The membranes were then transferred to a chemiluminescence reader where approximately 100 ul of a trigger solution comprising 0.3% H2 O2 in 0.25N NaOH was delivered to each membrane. The amount of light generated by the acridinium-labelled reagent bound to the microparticles was determined and is inversely proportional to the amount of anti-HBc present in the sample. […] There was a 10-20% signal loss in the negative control in the presence of cysteine. […]

anti-HBc [3] = assay: Sephacryl S-300 fractions assayed for anti-HBc activity by microparticle assay, with cysteine; type: binding
Experimental: Briefly, 2 ml of recalcified Sample 209 was applied to a Sephacryl S-300 column (2.5×50 cm) equilibrated with PBS. 2.5 ml fractions were collected at a flow rate of 20 ml/hr. Fractions were assayed using the microparticle assay of Example 3 except that an approximately 5 fold increase in sensitivity was implemented by using increasing incubation time and decreasing the amount of anti-HBc conjugate. […] The first inhibitory peak was not detected when assayed in the presence of cysteine. The second and major inhibitory peak, which co-eluted with the IgG protein peak, was unaffected by cysteine treatment. The immunoglobulin G associated anti-HBc activity is specific for non-acute hepatitis B infection.
3 ml of a borderline positive sample (Sample 9) was tested according to the procedure of Example 9. […] In the absence of reducing agent, a single inhibitory peak was seen near the void volume of the column. This peak was not detected when assayed in the presence of cysteine, and was clearly resolved form the IgG protein peak. This non-IgG reactivity is not believed to be a result of Hepatitis B infection and is therefore nonspecific.

O=S([O-])S(=O)(=O)[O-].[Na+].[Na+] [MBS, sodium metabisulfite]
<cpm> (anti-HBc [1]; 10 ul 0.5M MBS, NC): 20856 cpm
% I (percent inhibition) (anti-HBc [1]; 10 ul 0.5M MBS, NC spiked with Panel 5): 73.6%
<cpm> (anti-HBc [1]; 10 ul 0.5M MBS, PC): 350 cpm
% I (percent inhibition) (anti-HBc [1]; 10 ul 0.5M MBS, Panel 7): 71.0%
<Sx*> % I (anti-HBc [1]; 10 ul 0.5M MBS, mean of samples spiked with Panel 5): 74.8%
<Sx> % I (anti-HBc [1]; 10 ul 0.5M MBS, mean of unspiked samples): 11.4%
% I (percent inhibition) (anti-HBc [1]; 10 ul 0.5M MBS, sample OBI 25): 7.6%
% I (percent inhibition) (anti-HBc [1]; 10 ul 0.5M MBS, sample OBI 25 spiked with Panel 5): 74.3%
% I (percent inhibition) (anti-HBc [1]; 10 ul 0.5M MBS, sample OBI 31): 10.4%
% I (percent inhibition) (anti-HBc [1]; 10 ul 0.5M MBS, sample OBI 31 spiked with Panel 5): 75.6%
% I (percent inhibition) (anti-HBc [1]; 10 ul 0.5M MBS, sample OBI 76): 5.8%
% I (percent inhibition) (anti-HBc [1]; 10 ul 0.5M MBS, sample OBI 76 spiked with Panel 5): 74.2%
% I (percent inhibition) (anti-HBc [1]; 10 ul 0.5M MBS, sample OBI 91): 10.8%
% I (percent inhibition) (anti-HBc [1]; 10 ul 0.5M MBS, sample OBI 91 spiked with Panel 5): 75.0%
% I (percent inhibition) (anti-HBc [1]; 10 ul 0.5M MBS, sample OBI 177): 31.5%
% I (percent inhibition) (anti-HBc [1]; 10 ul 0.5M MBS, sample OBI 177 spiked with Panel 5): 74.4%
% I (percent inhibition) (anti-HBc [1]; 10 ul 0.5M MBS, sample OBI 189): 2.5%
% I (percent inhibition) (anti-HBc [1]; 10 ul 0.5M MBS, sample OBI 189 spiked with Panel 5): 75.1%
effect on anti-HBc positive samples (anti-HBc [1]; Panel 7 and samples spiked with Panel 5): not affected
absolute values for negative and positive controls (anti-HBc [1]; Table I): not affected significantly
inhibition in the Corab assay (anti-HBc [1]; Sample 9): 5.2%
inhibition in the Corab assay (anti-HBc [1]; Sample 209): 86.3%

N[C@@H](CS)C(=O)O [cysteine]
COUNTS (anti-HBc [2]; 200 mM cysteine solution (EDTA, DTT), Negative Control): 23992 COUNTS
% I (percent inhibition) (anti-HBc [2]; 200 mM cysteine solution (EDTA, DTT), Panel 7): 76.3%
% I (percent inhibition) (anti-HBc [2]; 200 mM cysteine solution (EDTA, DTT), Plasma S9): 3.2%
% I (percent inhibition) (anti-HBc [2]; 200 mM cysteine solution (EDTA, DTT), Plasma S14): 3.0%
COUNTS (anti-HBc [2]; 200 mM cysteine solution (EDTA, DTT), Positive Control): 5000 COUNTS
<cpm> (anti-HBc [2]; 10 ul 0.75M cysteine fresh, NC): 20856 cpm
% I (percent inhibition) (anti-HBc [2]; 10 ul 0.75M cysteine fresh, NC spiked with Panel 5): 80.8%
<cpm> (anti-HBc [2]; 10 ul 0.75M cysteine fresh, PC): 4035 cpm
% I (percent inhibition) (anti-HBc [2]; 10 ul 0.75M cysteine fresh, Panel 7): 80.7%
average percent inhibition (anti-HBc [2]; 10 ul 0.75M cysteine fresh, plasma samples spiked with Panel 5): 71.5%
% I (percent inhibition) (anti-HBc [2]; 10 ul 0.75M cysteine fresh, sample 52): 6.2%
% I (percent inhibition) (anti-HBc [2]; 10 ul 0.75M cysteine fresh, sample 52 spiked with Panel 5): 67.9%
% I (percent inhibition) (anti-HBc [2]; 10 ul 0.75M cysteine fresh, sample 71): 36.0%
% I (percent inhibition) (anti-HBc [2]; 10 ul 0.75M cysteine fresh, sample 71 spiked with Panel 5): 69.9%
% I (percent inhibition) (anti-HBc [2]; 10 ul 0.75M cysteine fresh, sample 166): 54.0%
% I (percent inhibition) (anti-HBc [2]; 10 ul 0.75M cysteine fresh, sample 166 spiked with Panel 5): 80.8%
% I (percent inhibition) (anti-HBc [2]; 10 ul 0.75M cysteine fresh, sample 189): 11.1%
% I (percent inhibition) (anti-HBc [2]; 10 ul 0.75M cysteine fresh, sample 189 spiked with Panel 5): 70.5%
% I (percent inhibition) (anti-HBc [2]; 10 ul 0.75M cysteine fresh, sample 277): -2.5%
% I (percent inhibition) (anti-HBc [2]; 10 ul 0.75M cysteine fresh, sample 277 spiked with Panel 5): 68.6%
average percent inhibition (anti-HBc [2]; 10 ul 0.75M cysteine fresh, unspiked plasma samples): 21.0%
mean counts (anti-HBc [2]; Example 5, + cysteine reagent, Negative control): 24494 counts
% I (percent inhibition) (anti-HBc [2]; Example 5, + cysteine reagent, Panel 5): 86.7%
% I (percent inhibition) (anti-HBc [2]; Example 5, + cysteine reagent, Panel 6): 85.3%
% I (percent inhibition) (anti-HBc [2]; Example 5, + cysteine reagent, Panel 7): 77.2%
% I (percent inhibition) (anti-HBc [2]; Example 5, + cysteine reagent, Panel 8): 53.5%
% I (percent inhibition) (anti-HBc [2]; Example 5, + cysteine reagent, Panel 9): 21.0%
mean counts (anti-HBc [2]; Example 5, + cysteine reagent, Positive control): 5678 counts
activity (interfering factor) in Group II type samples (anti-HBc [2]; S9 and S14, presence of cysteine): eliminated
signal loss in the negative control (anti-HBc [2]; presence of cysteine): 10-20%
single inhibitory peak near the void volume (anti-HBc [3]; Sample 9, presence of cysteine): not detected
second and major inhibitory peak (co-eluted with IgG) (anti-HBc [3]; Sample 209, cysteine treatment): unaffected
first inhibitory peak (anti-HBc [3]; Sample 209, presence of cysteine): not detected
